In data set [1] the test system is NO production induced by IFN-γ in mouse macrophages. The data set is described as follows: iNOS assay: inhibition of NO production induced by IFN-γ in mouse macrophages. The format is cell-based. As to conditions: for IC50: Macrophage.
Data set [2] relates to several cancer cell lines. The experiment in a line: Inhibitory activity against several cancer cell lines (data not shown). The format is cell-based.
Data set [3] deals with COX-2 mRNA in RAW 264.7 cells. The data set is described as follows: Suppression of COX-2 mRNA formation in RAW 264.7 cells. The format is cell-based. Here is the method:
(§1) Standard methodology already in place in the inventors laboratory (Suh et al., 1998, 1999, incorporated herein by reference) can be used to evaluate the biological activity of newly synthesized TBEs using suppression of de novo synthesis of iNOS and COX-2 as endpoints. Briefly, primary mouse macrophages or RAW264.7 cells can be cultured under standard conditions and stimulated with either interferon-γ or lipopolysaccharide (LPS). TBEs are added to cell cultures at the same time as inducers. Nitric oxide production in cell culture supernatants can be measured as nitrite accumulation by the Griess reaction. Analysis of levels of iNOS protein in lysates of primary macrophages or RAW cells can be done by Western blot analysis, while levels of iNOS mRNA can be done by routine Northern blot analysis. Prostaglandin E2 production is measured with a commercially available ELISA assay kit, and […] protein and mRNA levels can measured by routine Western and Northern blot analysis, respectively. All these methods are well known in the art.

The subject of data set [4] is NRP-152 prostate epithelial cells. The data set is described as follows: Inhibition of proliferation of NRP-152 prostate epithelial cells. The format is cell-based. The following applies: Rattus norvegicus, Epithelial cell, read-out: IC50 level, inhibition of proliferation.
Data set [5] has as its system iNOS mRNA in RAW 264.7 cells. The data set is described as follows: Suppression of iNOS mRNA formation in RAW 264.7 cells. The format is cell-based. The procedure:
as §1

Data set [6] deals with MCF-7 breast cancer cells (ER-positive). The experiment in a line: Inhibition of estrogen-stimulated growth of MCF-7 breast cancer cells. The format is cell-based, human.
Data set [7] concerns activation of macrophages in CD-1 mice. The format is in vivo.
Where [8] appears, read: blocking of induction of iNOS by IFN-γ, NO production in mouse macrophages, read-out: Activity IC50.

The structures appear in SMILES notation. Read-outs that look alike come from different tables or passages of the source.

As for `CC1(C)C(=O)C(C#N)=C[C@]2(C)C3=CC(=O)CC[C@]3(C)CC[C@@H]12` (racemic) [(±)-TBE-10], the “times more potent than TBE-5” value in data set [1] is listed as “about 3 times”. Also, the IC50 in data set [1] (setting [8]) turned out to be 19 nM.

As for `CC1(C)C(=O)C(C#N)=C[C@@]2(C)C3=CC(=O)C=C[C@@]3(C)CC[C@H]12` [(+)-TBE-5], the IC50 in data set [1] (setting [8]) was found to be 64 nM. Also, the “potency in iNOS assay, statement in words” value (from here on “potency in iNOS assay”) in data set [1] (iNOS assay) is given as “same potency”. The “inhibitory activity against several cancer cell lines, enantiomers compared” value in data set [2] is “same inhibitory activity”.

Take `CC(=O)O[C@@H]1CC(=O)C=C2[C@@]3(C)C=C(C#N)C(=O)C(C)(C)[C@@H]3CC[C@]21C` (racemic) [(±)-TBE-3]: the “potency, times less than CDDO (COX-2 mRNA)” value in data set [3] (RAW cells) is on record as “about 10 times”. For the same compound, the “formation of COX-2 mRNA” value in data set [3] (at 1 μM in RAW cells) is reported as “suppresses”. Moreover, the IC50 in data set [1] (setting [8]) was 53 nM; in data set [4], approximately 100 nM. Also, the “potency, times less than CDDO (iNOS mRNA)” value in data set [5] (RAW cells) is given as “about 10 times”. In data set [5] (at 1 μM in RAW cells), the “formation of iNOS mRNA” value is “suppresses”.

As to `CC1(C)CC[C@]2(C(=O)O)CC[C@]3(C)C(=CC[C@@H]4[C@@]5(C)CC[C@H](O)C(C)(C)[C@@H]5CC[C@]43C)[C@@H]2C1` [Oleanolic acid, reference compound], the IC50 in data set [1] (setting [8]) was more than 40000 nM.

In the case of `C[C@]12CCC(=O)C=C1CC[C@@H]1[C@@H]2[C@@H](O)C[C@@]2(C)[C@H]1CC[C@]2(O)C(=O)CO` [Hydrocortisone, reference compound], in data set [1] (setting [8]), the IC50 turned out to be 10 nM.

Turning to `COC(=O)C1=C[C@]2(C)CC[C@H]3C(C)(C)C(=O)C(C#N)=C[C@]3(C)C2=CC1=O` (racemic) [(±)-TBE-6], the IC50 in data set [1] (setting [8]) worked out at 91 nM.

`CC1(C)C(=O)C(C#N)=C[C@]2(C)C3=CC(=O)C(C(N)=O)=C[C@]3(C)CC[C@@H]12` (racemic) [(±)-TBE-8]: the IC50 in data set [1] (setting [8]) amounted to 61 nM.

Consider `CC1(C)C(=O)C(C#N)=C[C@]2(C)C3=CC(=O)C(C#N)=C[C@]3(C)CC[C@@H]12` (racemic) [(±)-TBE-9], for which the “potency, times more than TBE-5” value in data set [6] is “about 30 times”. The “concentration range of dose-dependent inhibition of estrogen-stimulated growth” value in data set [6] (MCF-7 (ER-positive)) lay in the range of 10 to 1000 nM. The “times more potent than TBE-5” value in data set [1] was approximately 30 times. Besides, the IC50 in data set [1] (setting [8]) is 2.1 nM; in data set [1] (Mus musculus, iNOS assay, order-of-magnitude level, read-out: IC50 level stated in text), approximately 1 nM. Besides, the “potency in iNOS assay” value in data set [1] (iNOS assay) is “highest potency”. Moreover, the “times more potent than hydrocortisone” value in data set [1] (iNOS assay) is on record as “about 5 times”. Also, the signs of toxicity result in data set [7] (15 and 30 mg/kg oral, mouse) is reported as “no signs of toxicity”. The “oral activity in vivo” value in data set [7] (15 and 30 mg/kg, administered once, oral, mouse) is recorded as “orally active”. For the same compound, the “activation of macrophages in mice” value in data set [7] (CD-1 mice) is given as “blocks the activation of macrophages”. For the same compound, the “in vivo potency compared with hydrocortisone” value in data set [7] (mouse peritoneal inflammation) is recorded as “much more potent than hydrocortisone”.

On to `CC1(C)C(=O)C(C#N)=C[C@]2(C)C3=CC(=O)C=C[C@]3(C)CC[C@@H]12` [(−)-TBE-5], for which the IC50 in data set [1] (setting [8]) was found to be 58 nM. For the same compound, the “potency in iNOS assay” value in data set [1] (iNOS assay) was “same potency”. Further, the “inhibitory activity against several cancer cell lines, enantiomers compared” value in data set [2] is “same inhibitory activity”.

Regarding `CC1(C)C(=O)C(C#N)=C[C@]2(C)C3=CC(=O)C[C@@H](O)[C@]3(C)CC[C@@H]12` (racemic) [(±)-TBE-4], the IC50 in data set [1] (setting [8]) turned out to be 75 nM.

Take `CC(=O)O[C@@H]1CCC=C2[C@@]3(C)C=C(C#N)C(=O)C(C)(C)[C@@H]3CC[C@]21C` (racemic) [(±)-TBE-2]: the IC50 in data set [1] (setting [8]) was 480 nM.

For the compound `CC1(C)C(=O)C(C#N)=C[C@]2(C)C3=CCC[C@@H](O)[C@]3(C)CC[C@@H]12` (racemic) [(±)-TBE-1], the IC50 in data set [1] (setting [8]) came out at 310 nM.

As to `CC1(C)C(=O)C(C#N)=C[C@]2(C)C3=CC(=O)C(C(=O)O)=C[C@]3(C)CC[C@@H]12` (racemic) [(±)-TBE-7], the IC50 in data set [1] (setting [8]) was found to be 1600 nM.

As for `CC1(C)C(=O)C(C#N)=C[C@]2(C)C3=CC(=O)C=C[C@]3(C)CC[C@@H]12` (racemic) [(±)-TBE-5], the IC50 was approximately 10 nM in data set [1] (NO production induced by IFN-γ in mouse macrophages, order-of-magnitude level, read-out: IC50 level stated in text); 61 nM in data set [1] (setting [8]); approximately 100 nM in data set [4].

The values are drawn from patent US7176237B2, “Tricyclic-bis-enone derivatives and methods of use thereof” (The Trustees of Dartmouth College, priority 2002, dated 2007).
